From PMC6332359, “Insecticidal and Nematicidal Activities of Novel Mimosine Derivatives” (Molecules, 2015)
pIC50: −log10 of the molar value. Values joined by “and” are separate entries in the source; they are usually repeats but may differ in a detail not shown here. Identical values can stand only once. Like-named read-outs stand apart in the source and are kept apart here.

What was measured:
[1] = test system: termites; assay: No-choice contact assay against termites; type: in vivo; conditions: no-choice contact method, seven days treatment
Method: The no-choice bioassay method as described by Tawata et al. was used to evaluate insecticidal activity. […] Filter paper treated with ethanol and acetone was used as the control. After removing the solvent from treated filter paper by air drying at ambient temperature for 24 h, 20 termites were placed onto each paper. The dishes were covered and placed in incubator at ±23 °C. A few drops of distilled water were supplied daily to the bottom edge of each petri dish to maintain moisture during the experiment. The experiment was performed using four replicates of each treatment and was repeated two times. Mortality was evaluated after seven days treatment. […] Insect mortality rate was calculated as a percentage in comparison with the control group. Rotenone and fenitrothion were used as positive controls.

[2] = test system: termites; assay: Topical assay against termites (acute toxicity); type: in vivo; conditions: for LD50 against termites by topical application: worker termites, mortality after 48 h, mean ± SE of four replications; for Insecticidal activity relative to mimosine: higher than mimosine, from Table 1 LD50
Method: An acute toxicity bioassay was performed by topical application to worker termites. A series of seven different doses (0.25, 0.5, 1.5, 2.5, 7.5, 12.5, and 25 μg/termite) was prepared in ethanol solution for each tested sample. Aliquots (0.5 μL) of diluted samples were applied topically to the abdomens of worker termites. Controls were treated with 0.5 μL ethanol only. Termites were transferred into petri dishes (4.2-cm diameter) lined with filter paper and kept in an incubator at 23–25 °C. A few drops of distilled water were supplied daily to the bottom edge of each dish to maintain moisture during the experiment. Four replicates of 20 termites each were used per treatment. Fenitrothion and rotenone were used as positive controls. Mortality of insects was evaluated after 48 h treatment. […] LD50 values were calculated by probit analysis using Graphpad Prism 6.01 (GraphPad, La Jolla, CA, USA).

[3] = test system: Caenorhabditis elegans; assay: Nematicidal activity assay, 96-well microplate method; type: in vivo
Method: The nematicidal activity assay was conducted according to previously described procedures with minor modifications. The nematode Caenorhabditis elegans was cultivated on nematode growth medium (NGM) [3 g NaCl, 15 g agar, 2.5 g polypeptone, 136.1 g KH2OP4, 17.9 g KOH, 1 mL 1 M MgSO4, 1 mL 1 M CaCl2, 1 mL cholesterol (5 mg/mL), and 500 μL ampicillin (100 μg/mL)] plate covered with Escherichia coli strain OP50. The ampicillin-resistant OP50 was used as a feed source to prevent cross-contamination of the nematode culture. The NGM plates contained high densities of worms after 4 days incubation at 20 °C. For preparation of synchronous worm culture, worms were rinsed from the agar plate with S-basal buffer (5.85 g NaCl, 1 g K2HPO4, 6 g KH2PO4, and 1 mL cholesterol [5 mg/mL ethanol]/L), washed twice with S-basal buffer, and added to household bleach/10 N NaOH solution. The supernatant was shaken for 10–15 min, washed three times by centrifugation for 1 min at 3000 rpm, and then resuspended in S-basal buffer. One hundred microliters of worm/OP50 (1.2 × 10^9 bacteria/mL) solution was transferred into each well of a 96-well plate, and 20 μL sample stock solution was added to give final concentrations 25, 50, 100, 250, and 500 μM. The plate was shaken thoroughly for 2–3 min and incubated at 20 °C. Water was used as a negative control. The experiment was performed using four replicates of each treatment and was repeated two times. Dead and active nematodes were recorded after 48 h treatment. Nematode mortality rate was calculated as a percentage in comparison with the control group.

[4] = target: acetylcholinesterase (AChE) from termite whole bodies; assay: Acetylcholinesterase (AChE) inhibition, modified Ellman's method; type: biochemical, termites; conditions: crude enzyme from termite whole bodies; for pIC50: pH 8.0, 25 °C, read-out: IC50 against AChE
Method: Whole bodies of termites (20 mg) were homogenized in 1 mL of 0.1 M phosphate buffer (pH 8.0), and the homogenate was centrifuged at 12,000 rpm for 20 min. The supernatant was used as the enzyme source. All procedural steps for preparing the crude enzyme were performed at 4 °C [26]. The AChE activity was measured using the modified Ellman’s method. Twenty-five microliters of sample was transferred into each well of a 96-well microplate containing 125 μL 0.1 M phosphate buffer (pH 8.0), and 30 μL of the enzyme solution was added to each well. The mixture was incubated for 10 min at 25 °C, after which 50 μL of 5,5′-dithiobis-(2-nitrobenzoic acid) (final concentration 0.4 mM) and 25 μL of acetylthiocholine iodide (final concentration 1 mM) were added. The control was treated by adding 25 μL water. Enzyme activity was measured for 20 min at 412 nm. The AChE inhibition assay was performed using four replicates of each treatment and was repeated two times. The inhibition rate of AChE activity was calculated as a percentage as follows: Inhibition (%) = (Ao − AE)/Ao × 100(1) where Ao is the absorbance of the control, and AE is the absorbance of the tested sample.

[5] = read-out: Nematicidal activity IC50, C. elegans, 48 h treatment, 20 °C
[6] = Caenorhabditis elegans, C. elegans, 48 h treatment, 20 °C, read-out: Nematicidal activity IC50

Row | Structure (SMILES) | Mortality (%) ([1]; 50 μg/mL) | Mortality (%) ([1]; 100 μg/mL) | Mortality (%) ([1]; 250 μg/mL) | LD50 against termites by topical application [2] | pIC50 [3, 5] | pIC50 ([3]; Caenorhabditis elegans, 48 h, read-out: Nematicidal activity IC50, C. elegans, 48 h treatment, 20 °C) | Insecticidal activity relative to mimosine [2] | pIC50 [3, 6] | pIC50 [4] | AChE inhibitory activity (in words) [4] | Mortality (%) ([1]; 5 μg/mL) | Mortality (%) ([1]; 10 μg/mL) | Mortality (%) ([1]; 15 μg/mL)
1 | CCCOP1(=S)N[C@@H](Cn2ccc(=O)c(O)c2)CO1 (stereo partly drawn) [Compound 2c, 3-Hydroxy-1-(((4S)-2-propoxy-2-sulfido-1,3,2-oxazaphospholidin-4-yl)methyl)pyridin-4(1H)-one] | 29.4 ± 1.9 e % | 44.4 ± 1.9 e % | 52.5 ± 3.8 d % | 3.1 ± 0.5 b μg/insect | 3.66 | – | – | – | – | – | – | – | –
2 | CCCOP1(=S)N[C@@H](Cn2ccc(=O)c(O)c2)CO1 (stereo partly drawn) [Compound 1c, 3-Hydroxy-1-(((4S)-2-propoxy-2-sulfido-1,3,2-oxazaphospholidin-4-yl)methyl)pyridin-4(1H)-one] | 45.6 ± 0.4 bc % | 59.4 ± 1.3 cd % | 77.5 ± 0.9 b % | 0.8 ± 0.1 ef μg/insect | – | 3.94 | – | – | – | – | – | – | –
3 | COP1(=S)N[C@@H](Cn2ccc(=O)c(O)c2)CO1 (stereo partly drawn) [Compound 2a, 3-Hydroxy-1-(((4S)-2-methoxy-2-sulfido-1,3,2-oxazaphospholidin-4-yl)methyl)pyridin-4(1H)-one] | 48.8 ± 2.5 bc % | 70.6 ± 0.6 b % | 82.5 ± 1.3 ab % | 1.2 ± 0.2 de μg/insect | 3.60 | – | – | – | – | – | – | – | –
4 | CCOP1(=S)N[C@@H](Cn2ccc(=O)c(O)c2)CO1 (stereo partly drawn) [Compound 2b, 1-(((4S)-2-ethoxy-2-sulfido-1,3,2-oxazaphospholidin-4-yl)methyl)-3-hydroxypyridin-4(1H)-one] | 42.5 ± 2.5 bcd % | 52.5 ± 2.5 de % | 63.8 ± 0.0 c % | 2.1 ± 0.4 c μg/insect | 3.73 | – | – | – | – | – | – | – | –
5 | C=C(C)[C@H]1Cc2c(ccc3c2O[C@@H]2COc4cc(OC)c(OC)cc4[C@@H]2C3=O)O1 [Rotenone, rotenone, reference compound] | 48.8 ± 0.9 bc % | 68.1 ± 1.3 bc % | 80.0 ± 0.9 b % | 0.8 ± 0.2 ef μg/insect | – | – | – | – | – | – | – | – | –
6 | [2H]C([2H])(O)[C@@H](N)Cn1ccc(=O)c(O)c1 [D-mimosinol, deuterated mimosinol] | 33.1 ± 1.9 de % | 53.8 ± 3.8 de % | 60.6 ± 0.6 cd % | 1.8 ± 0.3 d μg/insect | – | – | > 30 times | 3.41 | – | – | – | – | –
7 | COP1(=S)N[C@@H](Cn2ccc(=O)c(O)c2)CO1 (stereo partly drawn) [Compound 1a, 3-Hydroxy-1-(((4S)-2-methoxy-2-sulfido-1,3,2-oxazaphospholidin-4-yl)methyl)pyridin-4(1H)-one] | 52%–62% and 62.5 ± 1.8 a % | 71%–88% and 88.8 ± 0.9 a % | 90.6 ± 1.3 a % | 0.5 μg/insect and 0.5 ± 0.1 fg μg/insect | 4.50 | – | – | – | 4.02 | – | – | – | –
8 | NC(Cn1ccc(=O)c(O)c1)C(=O)O (stereo not drawn) [Mimosine, β-[N-(3-hydroxy-4-oxypyridyl)]-α-aminopropionic acid] | 2.5 ± 1.1 f % | 7.5 ± 1.0 f % | 9.1 ± 2.0 e % | 54.1 ± 5.9 a μg/insect | – | – | – | 4.77 | 2.82 | not active | – | – | –
9 | CCOP1(=S)N[C@@H](Cn2ccc(=O)c(O)c2)CO1 (stereo partly drawn) [Compound 1b, 1-(((4S)-2-Ethoxy-2-sulfido-1,3,2-oxazaphospholidin-4-yl)methyl)-3-hydroxypyridin-4(1H)-one] | 52%–62% and 52.5 ± 3.5 ab % | 71%–88% and 71.9 ± 1.3 b % | 84.4 ± 2.2 ab % | 0.7 μg/insect and 0.7 ± 0.1 ef μg/insect | 4.30 | – | – | – | 3.98 | – | – | – | –
10 | COP(=S)(OC)Oc1ccc([N+](=O)[O-])c(C)c1 [Fenitrothion, reference compound] | – | – | – | 0.025 ± 0.0 g μg/insect | – | – | – | – | 3.74 | – | 26.9 ± 1.3% | 69.4 ± 0.6% | 83.8 ± 1.9%
11 | O=c1cc(CO)occ1O [kojic acid] | – | – | – | – | – | – | – | 3.48 | 2.26 | not active | – | – | –
12 | N[C@H](CO)Cn1ccc(=O)c(O)c1 [Mimosinol, mimosinol] | 38.1 ± 1.3 cde % | 52.5 ± 2.7 de % | 68.5 ± 0.6 c % | 1.2 ± 0.2 de μg/insect | – | – | > 30 times | 3.42 | – | – | – | – | –
